These results are taken from US6818666B2, “Bi-aromatic compounds linked via a heteroethylene radical, and pharmaceutical and cosmetic compositions using them” (Galderma Research & Development, priority 1919, dated 2004).

As a reminder, the AC50 is the concentration giving half of the maximal activity seen. Lower therefore signals activity at low concentration.

The subject of this test is mouse embryonic teratocarcinoma F9 cells. The test is described as follows: differentiation test on mouse embryonic teratocarcinoma cells (F9), secretion of plasminogen activator. Type of test: cell-based. The settings on record: for AC50: concentration of the test product which produces half of the maximum amount of plasminogen activator secreted; for RAR-agonist character concluded from F9 differentiation results: conclusion drawn from the F9 AC50 results. An excerpt: Results of differentiation tests on mouse embryonic teratocarcinoma cells (F9) to identify the RAR-agonist molecules as described in Skin Pharmacol. 3, pp. 256-267, 1990.
After treatment with the compounds of the examples cited in the following table, the mouse embryonic teratocarcinoma F9 cells differentiate into endodermal cells. This differentiation is characterized by the secretion of the plasminogen activator into the culture medium.
The activity of the product is expressed by the AC50 value representing the concentration of the test product which produces half of the maximum amount of plasminogen activator secreted.

`COC(=O)c1ccc(C#CSc2ccc3c(c2)C(C)(C)CCC3(C)C)cc1` [Compound 1, Methyl 4-(5,5,8,8,-tetramethyl-5,6,7,8-tetrahydro-2-nachthylsuphanylethynyl)-benzoate]: the AC50 came out at 20 nM and the “RAR-agonist character concluded from F9 differentiation results” value was “RAR-agonist”.
As to `CC1(C)CCC(C)(C)c2cc(SC#Cc3ccc(C(=O)O)cc3)ccc21` [Compound 2, 4-(5,5,8,8-Tetramethyl-5,6,7,8-tetrahydro-2-naphthylsuphanylethynyl)benzoic acid], the AC50 is 1 nM and the “RAR-agonist character concluded from F9 differentiation results” value is “RAR-agonist”.
For `COC(=O)c1ccc(C#C[Se]c2ccc3c(c2)C(C)(C)CCC3(C)C)cc1` [Compound 4, Methyl 4-(5,5,8,8-tetramethyl-5,6,7,8-tetrahydro-2-naphthylselanylethynyl)benzoate], the “RAR-agonist character concluded from F9 differentiation results” value is recorded as “RAR-agonist”. Under “Mus musculus, F9”, the AC50 was found to be 4 nM.
For `CC1(C)CCC(C)(C)c2cc([Se]C#Cc3ccc(C(=O)O)cc3)ccc21` [Compound 5, 4-(5,5,8,8-Tetramethyl-5,6,7,8-tetrahydro-2-naphthylselanylethynyl)benzoic acid], the “RAR-agonist character concluded from F9 differentiation results” value is listed as “RAR-agonist”. The AC50 (Mus musculus, F9) came to 21 nM.
For the compound `Cc1cc2c(cc1[Se]C#Cc1ccc(C(=O)O)c(O)c1)C(C)(C)CCC2(C)C` [Compound 16, 2-Hydroxy-4-(3,5,5,8,8-pentamethyl-5,6,7,8-tetrahydro-2-naphthylselanylethynyl)benzoic acid], the “RAR-agonist character concluded from F9 differentiation results” value is “RAR-agonist”. In addition, the AC50 (Mus musculus, F9) was found to be 33 nM.
For `Cc1cc2c(cc1[Se]C#Cc1ccc(C(=O)O)cn1)C(C)(C)CCC2(C)C` [Compound 18, 6-(3,5,5,8,8-Pentamethyl-5,6,7,8-tetrahydro-2-naphthylselanylethynyl)nicotinic acid], the “RAR-agonist character concluded from F9 differentiation results” value is “RAR-agonist”. This compound also registered an AC50 (Mus musculus, F9) of 34 nM.
